Laboratory results from patent US20230158025A1 (UNIVERSITY OF UTAH RESEARCH FOUNDATION, priority 2020, published 2023).
Like-named read-outs stand apart in the source and are kept apart here.

Experiments:
recombinant human GALK1 = recombinant human GALK1 (Homo sapiens, UniProt P51570); test: hGALK1 biochemical activity assay (Kinase-Glo Plus, ATP depletion)
Procedure, shortened: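 Turnover is measured as ATP depletion by Kinase-Glo Plus luminescence after a 1 h room-temperature reaction. Compounds span 11 concentrations, 57.4 μM–0.97 nM, in final 20 mM HEPES pH 8.0 with 5 mM MgCl2. The substrate solution held 35 μM ATP; the added solution held 5 nM human or mouse GALK1 and 100 μM galactose.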

[1] = rat microsomal stability (RLM)
recombinant mouse GALK1 = recombinant mouse GALK1 (Mus musculus, UniProt Q9R0N0); test: mGALK1 biochemical activity assay (Kinase-Glo Plus, ATP depletion)
recombinant mouse GALK1, sequence (Q9R0N0 whole entry): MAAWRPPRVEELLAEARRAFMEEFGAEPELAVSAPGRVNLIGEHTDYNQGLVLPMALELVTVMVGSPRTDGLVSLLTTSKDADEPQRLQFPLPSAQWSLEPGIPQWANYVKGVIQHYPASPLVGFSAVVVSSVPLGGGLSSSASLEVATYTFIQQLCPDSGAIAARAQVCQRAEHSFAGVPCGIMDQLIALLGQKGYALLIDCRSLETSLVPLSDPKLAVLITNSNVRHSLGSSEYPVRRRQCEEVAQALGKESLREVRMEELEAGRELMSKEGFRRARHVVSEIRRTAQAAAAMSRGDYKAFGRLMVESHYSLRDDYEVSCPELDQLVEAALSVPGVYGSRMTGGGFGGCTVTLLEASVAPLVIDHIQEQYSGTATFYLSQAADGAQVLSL
Procedure, shortened: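 Recombinant GALK1 (5 nM) with 100 μM galactose; GALK1 turnover read as ATP depletion by Kinase-Glo Plus luminescence. Reaction ran 1 h at room temperature before detection reagent was added.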

[2] = aqueous kinetic solubility
[3] = recombinant human GALK1, Kinase-Glo Plus ATP depletion, read-out: hGALK
[4] = recombinant mouse GALK1, Kinase-Glo Plus ATP depletion, read-out: mGALK
[5] = Tables 2-15, 35 μM ATP, 100 μM galactose, 1 h, bracketed figure after some values is undefined and not reported, read-out: mGALK IC50

recombinant human GALK1, sequence (P51570 whole entry): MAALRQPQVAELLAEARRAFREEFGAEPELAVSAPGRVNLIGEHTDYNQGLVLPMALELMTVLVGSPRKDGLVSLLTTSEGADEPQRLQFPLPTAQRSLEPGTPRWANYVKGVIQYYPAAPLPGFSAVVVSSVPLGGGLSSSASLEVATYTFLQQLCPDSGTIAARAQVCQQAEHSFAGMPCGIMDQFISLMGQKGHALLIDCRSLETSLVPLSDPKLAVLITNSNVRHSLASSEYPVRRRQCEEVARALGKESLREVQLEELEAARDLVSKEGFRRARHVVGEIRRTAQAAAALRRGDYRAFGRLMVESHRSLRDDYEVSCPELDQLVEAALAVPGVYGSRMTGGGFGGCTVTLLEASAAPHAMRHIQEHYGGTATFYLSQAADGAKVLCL

CC1=C(C(=O)Nc2nnc(-c3cccnc3)s2)C(c2ccccc2Cl)N=C(Nc2nc3cc(F)ccc3o2)N1 (centres unmarked) [Compound 97, 4-(2-chlorophenyl)-2-((5-fluorobenzo[d]oxazol-2-yl)amino)-6-methyl-N-(5-(pyridin-3-yl)-1,3,4-thiadiazol-2-yl)-1,4-dihydropyrimidine-5-carboxamide]
IC50 (recombinant human GALK1; [3]): 5.44 µM
Metab. Stabil. (m) ([1]; microsomal half-life): >30 m
IC50 (recombinant mouse GALK1; [4]): 19.3 µM
Perm. (1 × 10^−6 cm/sec) (PAMPA permeability): <1.5 1 × 10^−6 cm/sec
Sol. [2]: <1 µg/mL

COC(=O)c1ccnc(NC(=O)C2=C(C)NC(Nc3nc4ccccc4o3)=NC2c2ccccc2Cl)c1 (centres unmarked) [Compound 196, methyl 2-(2-(benzo[d]oxazol-2-ylamino)-4-(2-chlorophenyl)-6-methyl-1,4-dihydropyrimidine-5-carboxamido)isonicotinate]
IC50 (recombinant human GALK1; Tables 2-15, 35 μM ATP, 100 μM galactose, 1 h, bracketed figure after some values (e.g. −1.2) is undefined and not reported, read-out: hGALK IC50): 2.73 µM
IC50 (recombinant human GALK1; [3]): 2.73 µM
Metab. Stabil. (m) ([1]; microsomal stability half-life): 18.44 m
IC50 (recombinant mouse GALK1; [5]): 5.44 µM
IC50 (recombinant mouse GALK1; [4]): 5.44 µM
Perm. (1 × 10^−6 cm/sec) (PAMPA permeability; PAMPA): 27.7 1 × 10^−6 cm/sec
Sol. ([2]; aqueous kinetic solubility): <1 µg/mL

CC1=C(C(=O)Nc2cc(C(=O)O)ccn2)C(c2ccccc2Cl)N=C(Nc2nc3ccccc3o2)N1C(=O)c1ccccc1 (centres unmarked) [Compound 275, 2-(2-(benzo[d]oxazol-2-ylamino)-1-benzoyl-4-(2-chlorophenyl)-6-methyl-1,4-dihydropyrimidine-5-carboxamido)isonicotinic acid]
IC50 (recombinant human GALK1; recombinant human GALK1, Kinase-Glo Plus ATP depletion, bracketed figure in the cell, e.g. (−1.2), is not defined in the text shown, read-out: hGALK): 3.43 µM
Metab. Stabil. (m) ([1]; microsomal stability half-life, minutes): >30 m
IC50 (recombinant mouse GALK1; recombinant mouse GALK1, Kinase-Glo Plus ATP depletion, bracketed figure in the cell, e.g. (−1.2), is not defined in the text shown, read-out: mGALK): 7.69 µM
Perm. (1 × 10^−6 cm/sec) (PAMPA permeability; PAMPA): <1 1 × 10^−6 cm/sec
Sol. ([2]; aqueous kinetic solubility): 73.9 µg/mL

CC1=C(C(=O)Nc2ccnc(C(=O)O)c2)C(c2ccccc2Cl)N=C(Nc2nc3ccccc3o2)N1 (centres unmarked) [Compound 203, 4-(2-(benzo[d]oxazol-2-ylamino)-4-(2-chlorophenyl)-6-methyl-1,4-dihydropyrimidine-5-carboxamido)picolinic acid]
IC50 (recombinant human GALK1; [3]): 3.43 µM
Metab. Stabil. (m) ([1]; microsomal stability half-life): >30 m
IC50 (recombinant mouse GALK1; [5]): 3.06 µM
IC50 (recombinant mouse GALK1; [4]): 3.06 µM
Perm. (1 × 10^−6 cm/sec) (PAMPA permeability; PAMPA): <1 1 × 10^−6 cm/sec
Sol. ([2]; aqueous kinetic solubility): >74 µg/mL

CC1=C(C(=O)Nc2cccc(CO)c2)C(c2ccccc2Cl)N=C(Nc2nc3ccccc3o2)N1 (centres unmarked) [Compound 144, 2-(benzo[d]oxazol-2-ylamino)-4-(2-chlorophenyl)-N-(3-(hydroxymethyl)phenyl)-6-methyl-1,4-dihydropyrimidine-5-carboxamide]
IC50 (recombinant human GALK1; [3]): 3.85 µM
Metab. Stabil. (m) ([1]; microsomal stability half-life): >30 m
IC50 (recombinant mouse GALK1; [5]): 9.68 µM
IC50 (recombinant mouse GALK1; [4]): 9.68 µM
Perm. (1 × 10^−6 cm/sec) (PAMPA permeability; PAMPA): 1124.1 1 × 10^−6 cm/sec
Sol. ([2]; aqueous kinetic solubility): <1 µg/mL
